Columns and labels:
[1] = tested on: A549 human lung cells; experiment: Cell cycle progression by flow cytometry; type: cell-based
Description: Cell cycle studies were initiated in order to pinpoint a specific phase within the cell cycle in which discodermolide analogs were exerting their antiproliferative effect. A549 human lung cells were used as cell cycle targets to compare the effects of discodermolide and discodermolide analogs on perturbation of the cell cycle. Cell cycle analyses were performed as follows: A549 cells were incubated at 37° C. in 5% CO2 in air in the presence or absence of varying concentrations of discodermolide or discodermolide analogs for 24 hr. Cells were harvested, fixed in ethanol, washed, and stained with 0.02 mg/mL of propidium iodide (P.I.) together with 0.1 mg/mL of RNAse A. Stained preparations were analyzed on a Coulter EPICS ELITE flow cytometer with 488 nm excitation. Fluorescence measurements and resulting DNA histograms were collected from at least 10,000 P.I. stained cells at an emission wavelength of 690 nm. Raw histogram data was further analyzed using a cell cycle analysis program (Multicycle, Phoenix Flow Systems).

[2] = tested on: P388 murine leukemia cell lines; experiment: In vitro proliferation of P388 cells (MTT); type: cell-based; settings: 48-h exposure
Description: Discodermolide and discodermolide analogs were analyzed as to their effects on proliferation of A549 human adenocarcinoma and P388 murine leukemia cell lines. P388 cells were obtained from Dr. R. Camalier, National Cancer Institute, Bethesda, MD, and A549 cells were obtained from American Type Culture Collection, Rockville, MD. All cell lines were maintained in tissue culture medium (TCM; Roswell Park Memorial Institute RPMI 1640 supplemented with 100 U/mL penicillin, […], 60 […], 18 mM HEPES, 0.05 mg/mL gentamicin (Life Technologies, Gaithersburg, MD) and 10% fetal bovine serum) and cultured in plastic tissue culture flasks at 37° C. in humidified air containing 5% CO2. Stock cultures of P388 cells were subcultured 1:20 in fresh TCM every 2 to 3 days. Stock cultures of A549 cells were subcultured 1:10 every 3 to 4 days. To assess the antiproliferative effects of agents against the cells, 200 μL cultures (96-well tissue culture plates, Nunc, Denmark) were established at 1 ×10^5 cells/mL in TCM or TCM containing the test agent at 0.03-5.0 μg/mL. After 48-h exposures, P388 cells were enumerated using 3-[4,5-dimethylthiazol-2-yl]-2,5-diphenyltetrazolium bromide (MTT) as described in the literature (M. C. Alley, et al., Cancer Res. 48:589, 1988). A549 cells were enumerated in the same manner after 72 hours exposure. The results were expressed as percent inhibition compared to the negative (no drug) control. Positive drug controls of varying dilutions of 5-fluorouracil and adriamycin (Sigma Chemical Co., St Louis, MO) were included to monitor drug sensitivity of the cell line.
To quantitate the effects on cell proliferation and resulting IC50 values, 75 μL of warm growth media containing 5 mg/mL MTT is added to each well, cultures returned to the incubator, and left undisturbed for 3 hours. To spectrophotometrically quantitate formation of reduced formazan, plates are centrifuged (500×g, 10 minutes), culture fluids removed by aspiration, and 200 μL of acidified isopropanol (2 mL concentrated HCl /liter isopropanol) added per well. The absorbance of the resulting solutions is measured in a plate reader (TECAN Spectra SLT; TECAN U.S., Research Triangle Park, N.C.) at 570 nm and a 650 nm reference filter. The absorbance of test wells is divided by the absorbance of drug-free wells, and the concentration of agent that results in 50% of the absorbance of untreated cultures (IC50) is determined by linear regression of logit-transformed data (D. J. Finney, Statistical Method in Biological Assay, third ed., pp. 316-348, Charles Griffin Co., London, 1978). A linear relationship between tumor cell number and formazan production has been routinely observed over the range of cell densities observed in these experiments. The two standard drug controls (indicated above) are included in each assay as a check to monitor the drug sensitivity of each of the cell lines and IC50 values are determined for each drug-cell combination.

[3] = tested on: A549 human adenocarcinoma tumor cells; experiment: Microtubule bundling patterns in tumor cells by immunofluorescence; type: cell-based; design: key to Microtubule bundling in A549 cells: −: no effect; +/−: minimal or questionable effect; +: weak effect; ++: strong effect; +++: very strong effect equivalent to discodermolide
Description: Discodermolide and discodermolide analogs were evaluated as to their effects on the morphology of the microtubule network of cells using mouse anti-alpha-tubulin monoclonal antibody.
On day one, 7×10^4 adherent A549 human adenocarcinoma tumor cells were cultured in TCM overnight at 37° C. in 5% CO2 on 22 mm^2 cover slips in 6-well microtiter plates. On day two, TCM was removed and replaced with 10-1000 nM discodermolide or analog in TCM or TCM without drug (control) and incubated overnight at 37° C. in 5% CO2. On day three, TCM was removed and cells attached to cover slips were fixed with a 3.7% formaldehyde solution in Dulbecco's PBS for 10 minutes at room temperature. Cells were permeabilized with a 2% Triton X-100 solution, 2 mL per well, for 5 minutes at room temperature and washed twice in Dulbecco's PBS prior to staining.
To each well containing cells attached to cover slips a 2 mL volume of mouse anti- alpha-tubulin monoclonal antibody (Cat# T-5168, Sigma Chemical Co., St. Louis, Mo.) diluted 1:1000 in Dulbecco's phosphate buffered saline (D-PBS) was added and the cells incubated at room temperature for 45 minutes. Cover slips were rinsed once with D-PBS. A 2 mL volume of goat-anti-mouse-IgG-FITC conjugated antibody (Cat# T-5262, Sigma Chemical Co., St. Louis, Mo.) diluted 1:1000 in D-PBS was added and the cells incubated at room temperature for 45 minutes. Cover slips were rinsed once in D-PBS and DNA was stained with 0.02 mg/mL propidium iodide together with 0.1 mg/mL of ribonuclease A (RNAse) A in D-PBS at 37° C. for 30 minutes. Cover slips were rinsed three times with sterile distilled water, air-dried and mounted on slides with SlowFade™ antifade solution (Molecular Probes, Eugene, Oreg.) and observed under the microscope using epifluorescence illumination for the presence of abnormal aster and microtubule bundle formations.

[4] = see U.S. Pat. No. 6,127,406; cited from earlier work

| SMILES | Cytotoxicity compared to the parent molecule [4] | further results |
| --- | --- | --- |
| CCCCC(C)C(OC(N)=O)C(C)C(OC(C)=O)C(C)CC(C)=CC(C)C(OC(C)=O)C(C)CCCCC1OC(=O)C(C)C(OC(C)=O)C1C (stereo not drawn) [7-deoxy-8,21,23-hexahydrodiscodermolide-3,11,17-triacetate] |  | Cell cycle effects ([1]; 10 nM): No cell cycle effects were noted; Cell cycle effects (100 nM) ([1]; 100 nM, 24 hr, A549): No cell cycle effects were noted; Cell cycle effects ([1]; 1000 nM): No cell cycle effects were noted; IC50 P388 cells [2]: >5 µg/mL; IC50 ([2]; value in parentheses): > 7.5 µM; Microtubule bundling observation ([3]; 10 nM through 1000 nM): no bundling seen; Microtubule bundling in A549 cells ([3]; subjective rating versus discodermolide, Table 12): − |
| C=CC=CC(C)C(OC(N)=O)C(C)C(OC(C)=O)C(C)CC(C)=CC(C)C(OC(C)=O)C(C)C=CC(CC1OC(=O)C(C)C(OC(C)=O)C1C)OC(C)=O (stereo not drawn) [discodermolide-3,7,11,17-tetraacetate] | dramatic reduction in the activity |  |
| C=CC=CC(C)C(OC(N)=O)C(C)C(O)C(C)CC(C)=CC(C)C(OC(C)=O)C(C)C=CC(CC1OC(=O)C(C)C(OC(C)=O)C1C)OC(C)=O (stereo not drawn) [discodermolide-3,7,11-triacetate] | reduced cytotoxicity |  |
| C=CC=CC(C)C(OC(N)=O)C(C)C(OC(C)=O)C(C)CC(C)=CC(C)C(O)C(C)C=CC(CC1OC(=O)C(C)C(OC(C)=O)C1C)OC(C)=O (stereo not drawn) [discodermolide-3,7,17-triacetate] | dramatic reduction in the activity |  |
| C=CC=CC(C)C(OC(N)=O)C(C)C(O)C(C)CC(C)=CC(C)C(O)C(C)C=CC(CC1OC(=O)C(C)C(OC(C)=O)C1C)OC(C)=O (stereo not drawn) [discodermolide-3,7-diacetate] | greater cytotoxicity |  |
| C=CC=CC(C)C(OC(N)=O)C(C)C(O)C(C)CC(C)=CC(C)C(OC(C)=O)C(C)C=CC(O)CC1OC(=O)C(C)C(OC(C)=O)C1C (stereo not drawn) [discodermolide-3,11-diacetate] | reduced cytotoxicity |  |
| C=CC=CC(C)C(OC(N)=O)C(C)C(OC(C)=O)C(C)CC(C)=CC(C)C(O)C(C)C=CC(O)CC1OC(=O)C(C)C(OC(C)=O)C1C (stereo not drawn) [discodermolide-3,17-diacetate] | dramatic reduction in the activity |  |
| C=CC=CC(C)C(OC(N)=O)C(C)C(O)C(C)CC(C)=CC(C)C(O)C(C)C=CC(O)CC1OC(=O)C(C)C(OC(C)=O)C1C (stereo not drawn) [discodermolide-3-acetate] | greater cytotoxicity |  |
| C=CC=CC(C)C(OC(N)=O)C(C)C(O)C(C)CC(C)=CC(C)C(O)C(C)C=CC(CC1OC(=O)C(C)C(O)C1C)OC(C)=O (stereo not drawn) [discodermolide-7-acetate] | greater cytotoxicity |  |

Reference: patent publication US6495594B2, “Biologically active analogs of discodermolide” (Harbor Branch Oceanographic Institution, Inc., priority 2000, dated 2002)
